Calls of active or inactive are those of the source.
Legend:
[1] = target: T1, E3 ubiquitin-protein ligase XIAP (Homo sapiens, UniProt P98170); assay: small molecules displacing peptide from XIAP – biochemical, IAP family, fluorescence polarization (AID 1018); format: functional
[2] = target: T1, E3 ubiquitin-protein ligase XIAP; assay: Counter Screen using XIAP-Bir3 for Chemical Antagonists of Bir1/2 domains of IAP-family anti-apoptotic proteins. [Related pubchem assays (depositor defined):AID1018, AID1449, AID1514, AID1638, AID1749, AID1750, AID488957, AID488963]
[3] = (§1) Counterscreen for antagonists of the orexin 1 receptor (OX1R; HCRTR1): Fluorescence-based cell-based high throughput dose response assay to identify antagonists of the parental CHO cell line. [Related pubchem assays (depositor defined):AID434989, AID435008, AID463079, AID485270, AID492963, AID492964, AID492965, AID493232, AID504699, AID504701]; format: functional
CHO-K1 = assay: as §1, with “Homogeneous time resolved fluorescence (HTRF)-based” for “Fluorescence-based”, “cell-based” for “cell-based high throughput”, “CHO-K1” for “CHO”; format: functional; conditions: Cricetulus griseus;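 note: potency for inhibition of ATP-stimulated IP1 production as antagonists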
[4] = target: T2, Orexin/Hypocretin receptor type 1 (Homo sapiens, UniProt O43613); assay: (§2) Fluorescence-based cell-based high throughput dose response assay for antagonists of the orexin 1 receptor (OX1R; HCRTR1). [Related pubchem assays (depositor defined):AID434989, AID435008, AID463079, AID485270, AID492963, AID492964, AID492965, AID493232, AID504717, AID504718]; format: functional
T2 sequence (O43613 whole entry): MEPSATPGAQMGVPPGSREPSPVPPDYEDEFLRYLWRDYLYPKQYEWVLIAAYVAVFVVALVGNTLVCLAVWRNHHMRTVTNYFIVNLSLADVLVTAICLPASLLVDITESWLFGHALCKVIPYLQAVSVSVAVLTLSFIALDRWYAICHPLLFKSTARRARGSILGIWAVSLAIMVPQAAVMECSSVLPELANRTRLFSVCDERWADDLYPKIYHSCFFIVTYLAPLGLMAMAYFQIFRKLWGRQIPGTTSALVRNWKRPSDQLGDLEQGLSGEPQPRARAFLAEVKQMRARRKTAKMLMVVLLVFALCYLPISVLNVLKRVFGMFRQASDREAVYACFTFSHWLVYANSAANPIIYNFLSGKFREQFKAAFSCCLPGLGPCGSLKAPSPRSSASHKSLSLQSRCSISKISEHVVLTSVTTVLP

[5] = viability of uninfected HEp-2 cells – cell-based, HTS, cytotoxicity control for RSV inhibitor project, dose response (AID 2410); format: functional; conditions: human respiratory syncytial virus
[6] = target: T2, Orexin/Hypocretin receptor type 1; assay: as §2, with “Homogeneous Time Resolved Fluorescence (HTRF)-based” for “Fluorescence-based”; format: functional
[7] = target: Potassium voltage-gated channel subfamily KQT member 2 (Rattus norvegicus, UniProt O88943, W236L); assay: potentiation of rat KCNQ2 current – cell-based, automated electrophysiology, mechanism study for KCNQ2 potentiator project, dose response (AID 2603); format: functional
Chain of Potassium voltage-gated channel subfamily KQT member 2 (O88943 whole entry W236L): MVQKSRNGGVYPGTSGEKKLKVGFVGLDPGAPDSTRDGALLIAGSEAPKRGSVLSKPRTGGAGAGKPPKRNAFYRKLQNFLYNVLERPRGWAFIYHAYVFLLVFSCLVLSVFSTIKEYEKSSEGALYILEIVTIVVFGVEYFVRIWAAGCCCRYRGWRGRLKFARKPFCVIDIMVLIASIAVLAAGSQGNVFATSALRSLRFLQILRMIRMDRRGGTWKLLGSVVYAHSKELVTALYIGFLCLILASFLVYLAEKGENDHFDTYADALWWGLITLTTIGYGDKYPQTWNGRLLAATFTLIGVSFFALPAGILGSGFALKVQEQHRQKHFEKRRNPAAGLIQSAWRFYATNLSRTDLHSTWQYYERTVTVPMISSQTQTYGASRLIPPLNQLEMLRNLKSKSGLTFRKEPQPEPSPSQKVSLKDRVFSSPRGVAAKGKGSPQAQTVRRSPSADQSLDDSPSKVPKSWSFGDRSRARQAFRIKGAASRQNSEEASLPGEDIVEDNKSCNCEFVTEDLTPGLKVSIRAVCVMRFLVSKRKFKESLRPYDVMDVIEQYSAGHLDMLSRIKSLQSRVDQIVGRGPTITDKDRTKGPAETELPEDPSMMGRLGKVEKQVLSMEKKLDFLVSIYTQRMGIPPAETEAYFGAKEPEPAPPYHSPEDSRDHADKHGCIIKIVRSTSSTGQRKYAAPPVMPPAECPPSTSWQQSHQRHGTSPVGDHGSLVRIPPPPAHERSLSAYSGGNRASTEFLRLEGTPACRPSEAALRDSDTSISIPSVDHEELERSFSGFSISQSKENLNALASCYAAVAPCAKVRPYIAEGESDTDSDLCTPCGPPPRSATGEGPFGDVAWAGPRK

Vero = assay: viability of Vero cells under compound – cytotoxicity control for flavivirus capping enzyme inhibitors (AID 588742); format: functional; conditions: Chlorocebus sabaeus
Genome polyprotein = Genome polyprotein (dengue virus type 2, UniProt P29990); assay: flavivirus cap methylation enzyme inhibition – biochemical, confirmation dose response, primary screen (AID 588689); format: functional
Chain of Genome polyprotein (P29990 2492-3391 limits assumed): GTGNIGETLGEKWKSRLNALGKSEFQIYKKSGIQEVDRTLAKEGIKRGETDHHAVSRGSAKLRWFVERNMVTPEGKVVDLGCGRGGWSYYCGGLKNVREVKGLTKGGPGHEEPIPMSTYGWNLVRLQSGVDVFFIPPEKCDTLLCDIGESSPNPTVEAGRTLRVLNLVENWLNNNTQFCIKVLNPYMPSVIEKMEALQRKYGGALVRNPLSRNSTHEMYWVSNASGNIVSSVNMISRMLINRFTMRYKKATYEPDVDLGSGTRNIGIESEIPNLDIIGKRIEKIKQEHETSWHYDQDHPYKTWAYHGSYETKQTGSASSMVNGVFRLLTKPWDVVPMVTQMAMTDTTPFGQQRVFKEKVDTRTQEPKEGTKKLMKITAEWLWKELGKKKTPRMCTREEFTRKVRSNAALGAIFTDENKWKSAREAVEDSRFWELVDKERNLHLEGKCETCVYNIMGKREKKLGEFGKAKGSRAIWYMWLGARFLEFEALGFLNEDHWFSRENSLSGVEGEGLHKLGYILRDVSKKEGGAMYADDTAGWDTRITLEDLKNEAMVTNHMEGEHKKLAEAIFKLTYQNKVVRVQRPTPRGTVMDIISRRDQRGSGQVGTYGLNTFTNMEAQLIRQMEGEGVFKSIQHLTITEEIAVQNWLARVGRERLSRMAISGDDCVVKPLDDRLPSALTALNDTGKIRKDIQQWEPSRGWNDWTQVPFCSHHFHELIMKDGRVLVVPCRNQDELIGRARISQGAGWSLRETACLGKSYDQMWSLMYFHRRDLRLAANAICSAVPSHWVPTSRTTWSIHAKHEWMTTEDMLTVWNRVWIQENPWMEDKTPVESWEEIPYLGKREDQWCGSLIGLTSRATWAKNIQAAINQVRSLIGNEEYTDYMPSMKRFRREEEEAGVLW

[8] = non-specific 3'UTR reporter inhibition in Clone20-Shn3RL – cell-based, Renilla luciferase, cherry-picked, counter-screen for Shn3 inhibitor project, dose response (AID 624133); format: functional
Protein RecA = target: T3, Protein RecA (Mycobacterium tuberculosis, UniProt P9WHJ3); assay: Fluorescence Cell-Free Homogeneous Dose Retest to Identify Inhibitors of RecA-Intein Splicing Activity. [Related pubchem assays (depositor defined):AID2097, AID2223, AID489010, AID492950]; format: functional
T3 sequence (P9WHJ3 whole entry): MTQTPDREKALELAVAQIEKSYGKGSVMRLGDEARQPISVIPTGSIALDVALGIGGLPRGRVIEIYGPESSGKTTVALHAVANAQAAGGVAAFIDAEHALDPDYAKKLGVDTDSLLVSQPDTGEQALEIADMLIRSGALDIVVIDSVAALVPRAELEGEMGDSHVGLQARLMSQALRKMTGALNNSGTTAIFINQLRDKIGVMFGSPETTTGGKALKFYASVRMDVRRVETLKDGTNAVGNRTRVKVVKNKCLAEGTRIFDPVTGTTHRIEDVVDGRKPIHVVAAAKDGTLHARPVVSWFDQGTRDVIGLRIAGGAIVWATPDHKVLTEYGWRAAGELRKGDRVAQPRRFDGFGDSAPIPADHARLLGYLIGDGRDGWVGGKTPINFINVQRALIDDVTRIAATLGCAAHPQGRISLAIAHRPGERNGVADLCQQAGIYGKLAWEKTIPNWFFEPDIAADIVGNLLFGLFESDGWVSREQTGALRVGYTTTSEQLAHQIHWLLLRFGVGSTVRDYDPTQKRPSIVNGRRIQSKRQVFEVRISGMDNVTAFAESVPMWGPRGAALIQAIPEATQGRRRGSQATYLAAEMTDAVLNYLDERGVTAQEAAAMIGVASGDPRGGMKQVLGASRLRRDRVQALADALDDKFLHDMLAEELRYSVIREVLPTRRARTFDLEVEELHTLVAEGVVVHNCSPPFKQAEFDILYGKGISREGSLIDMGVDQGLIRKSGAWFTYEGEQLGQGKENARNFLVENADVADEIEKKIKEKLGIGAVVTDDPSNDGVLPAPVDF

[9] = Intein inhibitors as potential Tuberculosis drugs, a cytotoxicity screen. [Related pubchem assays (depositor defined):AID2221, AID2223, AID434968, AID435010, AID449749, AID449750, AID489010]; format: functional
[10] = target: T4, Replicative DNA helicase DnaB (Mycobacterium tuberculosis, UniProt P9WMR3); assay: DnaB intein splicing inhibitors, dose response, biochemical, cell-free fluorescence (AID 449749); format: functional
T4 sequence (P9WMR3 whole entry): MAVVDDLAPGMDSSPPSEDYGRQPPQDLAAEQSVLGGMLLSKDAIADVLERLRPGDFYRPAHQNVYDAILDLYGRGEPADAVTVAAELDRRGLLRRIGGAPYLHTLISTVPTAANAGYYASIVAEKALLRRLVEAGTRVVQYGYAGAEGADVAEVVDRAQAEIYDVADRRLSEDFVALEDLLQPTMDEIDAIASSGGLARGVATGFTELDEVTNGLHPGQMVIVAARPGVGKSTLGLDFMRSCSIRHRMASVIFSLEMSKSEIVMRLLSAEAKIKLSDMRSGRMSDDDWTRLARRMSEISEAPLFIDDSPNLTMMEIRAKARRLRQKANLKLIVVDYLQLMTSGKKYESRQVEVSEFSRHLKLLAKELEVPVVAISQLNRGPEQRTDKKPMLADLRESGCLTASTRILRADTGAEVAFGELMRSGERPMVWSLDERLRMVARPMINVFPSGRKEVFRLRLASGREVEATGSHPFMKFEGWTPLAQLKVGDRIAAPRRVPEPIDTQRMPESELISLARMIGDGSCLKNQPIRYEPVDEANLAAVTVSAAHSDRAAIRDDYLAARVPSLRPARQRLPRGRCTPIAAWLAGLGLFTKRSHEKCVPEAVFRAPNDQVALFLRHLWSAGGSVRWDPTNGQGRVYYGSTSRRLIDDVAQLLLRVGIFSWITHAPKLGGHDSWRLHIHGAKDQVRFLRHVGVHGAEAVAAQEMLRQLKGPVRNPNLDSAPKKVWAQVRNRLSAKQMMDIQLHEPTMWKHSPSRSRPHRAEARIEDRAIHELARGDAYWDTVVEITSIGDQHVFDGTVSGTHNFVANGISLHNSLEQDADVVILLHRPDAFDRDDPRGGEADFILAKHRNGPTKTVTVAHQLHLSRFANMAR

[11] = target: Hepatocyte nuclear factor 4-alpha (Homo sapiens, UniProt P41235); format: functional, cell-based;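 note: biochemical luminescence-based dose-response counterscreen measuring inhibition of HNF4 dimerization, run alongside a screen for blockers of ABHD5–perilipin-5 interaction; split luciferase complementation of HNF4 fusion proteins in cell lysate measuring dimerization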
Chain of Hepatocyte nuclear factor 4-alpha (P41235 whole entry, the tested form may be a part): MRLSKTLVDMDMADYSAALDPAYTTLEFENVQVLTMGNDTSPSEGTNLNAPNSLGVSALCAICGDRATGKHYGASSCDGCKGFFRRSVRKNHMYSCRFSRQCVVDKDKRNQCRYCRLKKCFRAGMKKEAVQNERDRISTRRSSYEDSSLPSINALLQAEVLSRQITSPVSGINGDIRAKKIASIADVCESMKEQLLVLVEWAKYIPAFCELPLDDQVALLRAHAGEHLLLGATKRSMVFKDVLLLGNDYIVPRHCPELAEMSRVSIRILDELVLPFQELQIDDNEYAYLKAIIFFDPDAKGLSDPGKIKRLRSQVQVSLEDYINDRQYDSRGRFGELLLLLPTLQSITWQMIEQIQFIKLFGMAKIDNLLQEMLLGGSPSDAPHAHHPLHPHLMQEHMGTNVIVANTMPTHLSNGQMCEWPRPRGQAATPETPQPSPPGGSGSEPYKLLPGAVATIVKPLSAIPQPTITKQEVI

[12] = reduction of Shn3 3'UTR-driven luciferase in osteoblasts – cell-based, Clone20 osteoblasts, firefly luciferase, cherry-picked, dose response (AID 624132); format: functional;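 note: firefly luciferase luminescence from reporter carrying the Shn3 3'UTR in osteoblasts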
Cytochrome P450 2D6 = Cytochrome P450 2D6 (Homo sapiens, UniProt P10635);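 note: CYP2D6 member of a cytochrome P450 panel assay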
Cytochrome P450 2C19 = Cytochrome P450 2C19 (Homo sapiens, UniProt P33261); assay: Cytochrome panel assay with activity outcomes. Panel member name: p450-cyp2c19 Compounds with AC50 equal or less than 10 uM are considered active; format: functional; conditions: read-out: AC50
Chain of Cytochrome P450 2C19 (P33261 whole entry): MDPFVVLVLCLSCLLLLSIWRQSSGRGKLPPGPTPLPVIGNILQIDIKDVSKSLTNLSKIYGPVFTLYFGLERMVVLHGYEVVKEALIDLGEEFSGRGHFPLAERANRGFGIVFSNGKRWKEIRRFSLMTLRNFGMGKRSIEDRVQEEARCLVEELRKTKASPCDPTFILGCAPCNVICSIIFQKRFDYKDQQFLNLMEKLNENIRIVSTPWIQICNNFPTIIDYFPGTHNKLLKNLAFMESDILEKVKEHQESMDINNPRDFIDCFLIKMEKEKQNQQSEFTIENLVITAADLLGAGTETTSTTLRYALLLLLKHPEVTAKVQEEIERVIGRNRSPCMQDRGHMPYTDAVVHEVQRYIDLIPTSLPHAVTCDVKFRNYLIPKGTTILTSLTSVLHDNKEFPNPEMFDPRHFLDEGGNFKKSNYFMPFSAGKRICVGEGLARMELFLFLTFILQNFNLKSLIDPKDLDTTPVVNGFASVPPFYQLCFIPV

Coagulation factor XII = target: T5, Coagulation factor XII (Homo sapiens, UniProt P00748); assay: activated coagulation factor XII inhibitor potency, concentration-effect curve, cell-free (AID 716); format: functional
T5 sequence (P00748 whole entry): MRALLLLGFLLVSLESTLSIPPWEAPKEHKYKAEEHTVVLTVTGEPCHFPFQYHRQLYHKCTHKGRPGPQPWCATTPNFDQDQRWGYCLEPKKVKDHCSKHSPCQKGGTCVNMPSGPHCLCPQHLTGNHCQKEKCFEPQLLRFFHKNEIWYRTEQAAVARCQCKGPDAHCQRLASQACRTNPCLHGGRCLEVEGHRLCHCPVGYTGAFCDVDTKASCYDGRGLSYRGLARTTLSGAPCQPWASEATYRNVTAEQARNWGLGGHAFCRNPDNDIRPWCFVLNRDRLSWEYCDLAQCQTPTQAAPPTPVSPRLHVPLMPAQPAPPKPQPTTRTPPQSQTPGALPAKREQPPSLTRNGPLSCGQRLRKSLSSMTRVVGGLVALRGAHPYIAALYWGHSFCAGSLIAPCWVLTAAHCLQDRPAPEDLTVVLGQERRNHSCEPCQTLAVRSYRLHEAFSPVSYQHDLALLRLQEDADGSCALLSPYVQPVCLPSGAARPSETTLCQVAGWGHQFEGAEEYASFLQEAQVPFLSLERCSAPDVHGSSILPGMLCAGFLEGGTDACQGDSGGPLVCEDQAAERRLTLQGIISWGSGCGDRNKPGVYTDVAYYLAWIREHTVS

[13] = target: T6, Corticotropin-releasing factor receptor 2/Corticotropin-releasing factor-binding protein (Homo sapiens, UniProt P24387+Q13324); assay: Dose Response confirmation of uHTS hits for small molecule antagonists of the CRF-binding protein and CRF-R2 receptor complex.; format: functional; conditions: read-out: IC50_Mean
T6 sequence (Q13324 whole entry): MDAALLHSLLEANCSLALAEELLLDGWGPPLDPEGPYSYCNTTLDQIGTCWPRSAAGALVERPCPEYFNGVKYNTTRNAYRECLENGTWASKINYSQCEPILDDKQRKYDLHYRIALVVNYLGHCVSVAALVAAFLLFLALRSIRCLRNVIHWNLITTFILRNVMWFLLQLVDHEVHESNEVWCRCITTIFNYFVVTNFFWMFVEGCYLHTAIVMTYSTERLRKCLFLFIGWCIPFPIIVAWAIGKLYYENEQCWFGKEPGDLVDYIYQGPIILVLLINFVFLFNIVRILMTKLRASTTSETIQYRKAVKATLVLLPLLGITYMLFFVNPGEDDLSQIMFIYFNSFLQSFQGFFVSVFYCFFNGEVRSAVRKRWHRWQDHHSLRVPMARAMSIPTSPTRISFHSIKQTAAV
T6 sequence (P24387 whole entry): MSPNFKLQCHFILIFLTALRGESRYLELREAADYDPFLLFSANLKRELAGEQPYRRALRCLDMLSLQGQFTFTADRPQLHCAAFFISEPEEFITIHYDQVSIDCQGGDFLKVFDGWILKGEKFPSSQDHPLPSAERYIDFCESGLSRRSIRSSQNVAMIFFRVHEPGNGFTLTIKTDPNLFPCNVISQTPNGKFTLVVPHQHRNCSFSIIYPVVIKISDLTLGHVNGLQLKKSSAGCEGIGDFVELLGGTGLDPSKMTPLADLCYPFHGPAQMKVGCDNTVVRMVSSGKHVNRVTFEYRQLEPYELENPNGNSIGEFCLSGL

[14] = target: Intestinal-type alkaline phosphatase (Homo sapiens, UniProt P09923); assay: human intestinal alkaline phosphatase activators, dose response, biochemical, luminescence, uHTS hits (AID 463120); format: functional
Chain of Intestinal-type alkaline phosphatase (P09923 whole entry): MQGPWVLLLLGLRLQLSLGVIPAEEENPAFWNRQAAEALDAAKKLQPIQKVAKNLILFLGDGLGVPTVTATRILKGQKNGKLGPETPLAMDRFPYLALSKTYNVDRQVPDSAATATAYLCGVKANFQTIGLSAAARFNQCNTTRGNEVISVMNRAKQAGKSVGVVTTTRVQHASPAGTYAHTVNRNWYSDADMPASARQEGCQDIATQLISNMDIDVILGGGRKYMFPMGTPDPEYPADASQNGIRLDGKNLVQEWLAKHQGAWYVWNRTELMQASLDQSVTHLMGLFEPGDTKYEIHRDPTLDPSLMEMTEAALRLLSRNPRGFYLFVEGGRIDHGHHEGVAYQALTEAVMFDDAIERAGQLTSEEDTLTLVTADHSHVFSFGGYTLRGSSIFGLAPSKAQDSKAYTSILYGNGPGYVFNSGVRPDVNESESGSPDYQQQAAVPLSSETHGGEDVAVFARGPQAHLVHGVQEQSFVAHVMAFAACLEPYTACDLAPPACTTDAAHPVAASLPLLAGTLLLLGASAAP

[15] = blockers of CRF-binding protein–CRF-R2 complex – cell-based, uHTS hits, 384-well, dose response (AID 651639); format: functional, Homo sapiens; conditions: read-out: IC50_Mean
[16] = target: T6, Corticotropin-releasing factor receptor 2/Corticotropin-releasing factor-binding protein; assay: activators of CRF receptor 2 with binding protein – uHTS hits, confirmation (AID 602473); format: functional; conditions: read-out: EC50_Mean
[17] = target: T7, Runt-related transcription factor 1/Core-binding factor subunit beta (Homo sapiens, UniProt Q01196+Q13951); assay: Runt domain/CBFb-SMMHC interaction disruptors – biochemical, TR-FRET (AID 1438); format: protein assay
T7 sequence (Q01196 whole entry, the tested form may be a part): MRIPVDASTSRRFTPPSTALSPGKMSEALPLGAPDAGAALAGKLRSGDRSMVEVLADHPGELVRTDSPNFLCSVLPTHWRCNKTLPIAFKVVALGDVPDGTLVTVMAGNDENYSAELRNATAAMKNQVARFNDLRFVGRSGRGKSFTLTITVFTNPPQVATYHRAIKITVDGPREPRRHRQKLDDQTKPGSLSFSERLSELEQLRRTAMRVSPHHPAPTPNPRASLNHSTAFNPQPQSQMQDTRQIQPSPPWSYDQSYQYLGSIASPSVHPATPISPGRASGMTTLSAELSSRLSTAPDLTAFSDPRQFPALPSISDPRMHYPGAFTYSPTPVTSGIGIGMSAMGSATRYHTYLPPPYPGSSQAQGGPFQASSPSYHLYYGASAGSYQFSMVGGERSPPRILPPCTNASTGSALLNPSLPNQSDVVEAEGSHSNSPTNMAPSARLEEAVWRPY
T7 sequence (Q13951 whole entry, the tested form may be a part): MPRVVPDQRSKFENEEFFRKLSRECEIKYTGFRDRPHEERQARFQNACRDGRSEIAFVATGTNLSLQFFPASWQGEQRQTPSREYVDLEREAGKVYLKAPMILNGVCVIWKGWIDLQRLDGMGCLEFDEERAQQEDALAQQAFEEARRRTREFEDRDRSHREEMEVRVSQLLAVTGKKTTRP

[18] = target: T7, Runt-related transcription factor 1/Core-binding factor subunit beta; assay: disruptors of Runt domain/CBFb-SMMHC interaction – biochemical, FRET, Cerulean-Runt, Venus-CBFb-SMMHC, uHTS, […] (AID 1434); format: protein assay

T1 sequence (P98170 whole entry): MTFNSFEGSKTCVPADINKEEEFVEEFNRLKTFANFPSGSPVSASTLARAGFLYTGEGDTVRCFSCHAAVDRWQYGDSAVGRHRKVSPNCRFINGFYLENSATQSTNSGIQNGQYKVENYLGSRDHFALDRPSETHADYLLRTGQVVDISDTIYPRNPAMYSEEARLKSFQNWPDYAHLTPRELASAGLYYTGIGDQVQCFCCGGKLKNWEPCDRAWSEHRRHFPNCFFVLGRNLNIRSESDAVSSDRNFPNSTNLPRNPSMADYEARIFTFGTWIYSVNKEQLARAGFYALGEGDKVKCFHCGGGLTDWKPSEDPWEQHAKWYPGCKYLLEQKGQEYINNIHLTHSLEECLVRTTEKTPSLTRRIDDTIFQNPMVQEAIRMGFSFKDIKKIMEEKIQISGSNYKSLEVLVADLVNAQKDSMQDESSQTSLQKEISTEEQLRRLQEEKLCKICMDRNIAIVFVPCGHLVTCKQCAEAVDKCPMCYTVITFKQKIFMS

COc1ccc(NC(=O)N2CCC(c3nc(-c4cccs4)no3)CC2)cc1
IC50 [1]: > 100 µM (not active)
IC50 [2]: > 100 µM (inactive)

Cc1cc(C)cc(NC(=O)C2CCCN2S(=O)(=O)c2cccc3cccnc23)c1 (stereo not given)
IC50 [3]: > 49.7 µM (inactive)
IC50 (CHO-K1): > 66.2 µM (inactive)
IC50 [4]: 3.03 µM (active)
CC50 [5]: 32.9 µM (active)
IC50 [6]: 0.244 µM (active)

CSc1nnc(NC(=O)c2nc(S(=O)(=O)Cc3cccc(C)c3)ncc2Cl)s1
EC50 [7]: 1.83 µM (active)
CC50 (Vero): 24.9 µM (active)
IC50 (Genome polyprotein): 44.5 µM (active)
AC50 [8]: 11.5 µM (active)
EC50 (Protein RecA): 3.16 µM (active)
CC50 [9]: 26.7 µM (active)
AC50 [10]: 3.49 µM (active)
IC50 [11]: 4.45 µM (active)
AC50 [12]: 4.03 µM (active)

CCS(=O)(=O)N1CCC(C(=O)NCc2ccc(F)cc2Cl)CC1
AC50 (Cytochrome P450 2D6): 14.1 µM (inconclusive)
AC50 (Cytochrome P450 2C19): 39.8 µM (inconclusive)
IC50 (Coagulation factor XII): > 50 µM (inactive)

O=C(NNc1ncnc2c1cnn2-c1ccc(F)cc1)c1ccco1
IC50 [13]: < 0.368 µM (active)
EC50 [14]: 7.17 µM (active)
IC50 [15]: > 20 µM (inactive)
EC50 [16]: > 53 µM (inactive)

CN1c2ccsc2C(O)=C(C(S)=Nc2ccc(F)c(Cl)c2)S1(=O)=O
IC50 [17]: > 100 µM (inactive)
IC50 [18]: > 100 µM (inactive)

— ChEMBL document CHEMBL1201862, “PubChem BioAssay data set” (2004)
